Results on one molecule are retold here after US6656710B2, “Process for the production of amino acids using racemase and acylase” (priority 2000, dated 2003).

Common to all, as to type: biochemical
The test system of assay [1] is N-acetylamino acid racemase (AAR) from Amycolatopsis orientalis subsp. lurida. The assay can be described thus: Racemase activity assay of recombinant N-acetylamino acid racemase (polarimeter). Conditions: substrate 25 mM, Tris/HCl 50 mM pH 8.0, cobalt chloride 6 mM, ca. 150 μg AAR, 30° C., 3 to 12 hours, λ=365 nm. As to the method:
Detection of the racemase activity of a recombinant N-acetylamino acid racemase AAR enzyme The substrate spectrum of the N-acetylamino acid racemase (AAR) from Amycolatopsis orientalis subsp. lurida was tested with the enzyme assay described herein below. The composition of the assay was as follows: [table] Enantiomer-pure amino acid derivatives were used in the assay and the formation of the corresponding racemate was followed using a polarimeter (Perkin-Elmer 241). The incubation was carried out at 30° C. (heatable cell) for 3 to 12 hours. The measurements were made at a wavelength of λ=365 nm.

Assay [2] concerns L-acylase from Aspergillus oryzae. The experiment in a line: L-acylase activity assay, producing L-Met from Moc-L-Met. The note with it: Moc-L-Met 25 mM, Tris/HCl 50 mM pH 8.0, cobalt chloride 6 mM, L-Acylase 2.0 U, final volume 200 μL; L-Met detected by RP HPLC. From the text:
Moc-L-Met was used in an assay to determine the activity of the L-acylase from Aspergillus oryzae. A. Producing L-Met from Moc-L-Met [table] D-Met and L-Met were detected by reverse phase HPLC (RP 18). The unit data for the enzymes refer to specific activity with N-Ac-L-Met and N-Ac-D-Met as substrate.

The test system of assay [3] is D-acylase from Aspergillus oryzae in the presence of an N-acetylamino acid racemase (AAR) from Amycolatopsis orientalis subsp. lurida. The assay can be described thus: D-acylase activity assay in the presence of AAR, producing D-Met from Moc-L-Met. Conditions: Moc-L-Met 25 mM, Tris/HCl 50 mM pH 8.0, cobalt chloride 6 mM, D-Acylase 2.4 U, AAR 0.4 U, final volume 200 μL; D-Met detected by RP HPLC. From the text:
B. Producing D-Met from Moc-L-Met Moc-L-Met was used in an assay to determine the activity of the D-acylase from Aspergillus oryzae in the presence of an N-acetylamino acid racemase (AAR) from Amycolatopsis orientalis subsp. lurida. [table] D-Met and L-Met were detected by reverse phase HPLC (RP 18). The unit data for the enzymes refer to specific activity with N-Ac-L-Met and N-Ac-D-Met as substrate.

On to `COC(=O)N[C@@H](CCSC)C(=O)O` [N-methyloxycarbonyl-L-Met], for which, in assay [1], the “Specific Activity of the AAR” value amounted to 42 mU/mg. The Volume activity in assay [2] turned out to be 1.4 U/ml; in assay [3], 0.6 U/ml.
